{
  "source": "patent US20230270148A1",
  "about": "“BITTER BLOCKERS AND RELATED METHODS OF USE” (Conagen Inc., priority 2020, published 2023)",
  "key": {"[1]": {"system": "peach-flavored energy drink (caffeine, B vitamins)", "assay": "Sensory evaluation: bitterness reduction of a peach-flavored energy drink", "type": "in vivo", "details": "caffeine about 710 mg/l, dosage (ppm) per sample (20 to 50-100 ppm)", "protocol": "The bitterness blocker candidates listed in Table 1 were prepared into a 1% sample solution with propylene glycol and heated to ensure complete solubilization. […] A trained sensory evaluator was asked to estimate the perceived bitterness reduction against the control, as well as to provide comments on how the addition of the individual sample solution modulated the taste and mouth feel profile of the resulting peach-flavored energy drink."}, "caffeine in water": {"system": "caffeine in water", "assay": "Two-alternative forced choice (2AFC) difference test", "type": "in vivo", "protocol": "The bitter blocker candidates BB09, BB11, and BB13 were subject to a two-alternative forced choice (2AFC) difference test wherein panelists were presented Control Caffeine solutions and Test solutions containing caffeine and one of three bitterness blocker candidates (BB09, BB 11, or BB13). Panelists were asked to evaluate the two samples and answer the question, “which one is more hitter?”\nBB09 and BB11 were tested first. Three ounces of control (caffeine in water), BB09 in caffeine water, and BB11 in caffeine water were presented at room temperature in separate plastic souffle cups labeled with 3-digit codes. Ten sensory trained panelists evaluated each sample in three repetitions with a 10 minute break between repetitions. Panelists then completed the 2AFC. Data was collected on EveQuestion and analyzed on XLSTAT. Testing was conducted at Sensations Research according to FEMA guidelines.\nBB13 was tested separately. Two ounces of control (caffeine in water), BB13 in caffeine water were presented at room temperature in separate plastic souffle cups labeled with 3-digit codes. Fifteen participants evaluated each sample in two repetitions with a 10 minute break between repetitions for a total of thirty evaluations as per the FEMA guidelines. Panelists then completed the 2AFC to identify the more bitter sample. Data was collected and analyzed on Compusense."}},
  "data": [
    {"smiles": "COc1cc([C@@H]2CC(=O)c3c(O)cc(O)cc3O2)ccc1O[C@@H]1O[C@H](CO)[C@@H](O)[C@H](O)[C@H]1O", "note": "[BB11, Homoeriodictyol 4′-O-glucoside]", "values": [
      {"measurement": "Estimated % bitterness reduction", "setting": "[1]", "value": 80, "unit": "%"},
      {"measurement": "Significant?", "setting": "caffeine in water; 2AFC, 90% confidence level, which sample is more bitter", "value": "Yes,"},
      {"measurement": "# Selected Variant (which is more bitter?)", "setting": "caffeine in water; of 30 responses (10 panelists, 3 evaluations), control caffeine in water vs variant in caffeine water", "value": 10}
    ]}
  ]
}
